Experimental data taken from article PMC6233306 (Bioorganic & medicinal chemistry letters, 2018).
Converted amounts (≈) assume the structure as drawn.

How the values were obtained:
Mtb H37Rv = Mtb H37Rv growth inhibition; format: cell-based, Mycobacterium tuberculosis; conditions: for MIC90: Mycobacterium tuberculosis, H37RV, read-out: Mtb H37Rv MIC90; for MICs: in words
[1] = Chemical stability of coumarin core towards organic bases; format: physicochemical; conditions: prolonged time at ambient temperature; gives equimolar ring-opened product 5
[2] = Kinetic aqueous solubility; format: physicochemical; conditions: pH 7.4, water, kinetic from dmso stock

With `Cc1cc2nc(C(=O)NCCN(C)C)cc(-c3ccccc3Cl)c2c(C)c1-c1ccncc1` [Compound 21f] the MIC90 (Mtb H37Rv) was 0.3 µM (≈ 0.138 µg/mL) and the MICs (Mtb H37Rv) was “sub-micromolar”.

In the case of `Cc1cc2nc(C(=O)NC(C)C)cc(-c3ccccc3Cl)c2c(C)c1-c1ccncc1` [Compound 21c], the MIC90 (Mtb H37Rv) is reported as 2.5 µM (≈ 1.07 µg/mL).

For `Cc1cc2nccc(-c3ccc(Cl)cc3)c2c(C)c1-c1ccc(CN2CCOCC2)cc1` [Compound 15c], the MIC90 (Mtb H37Rv) was > 80 µM.

In the case of `Cc1cc2oc(=O)cc(-c3ccc(F)cc3)c2c(C)c1-c1ccc(CN2CCOCC2)cc1` [Compound 4], the “stability towards organic bases such as morpholine” value [1] is reported as “not stable”.

In the case of `Cc1cc2nccc(-c3ccnn3C)c2c(C)c1-c1ccc(CN2CCOCC2)cc1` [Compound 15m], the solubility kinetic [2] is reported as > 150 µM and the MIC90 (Mtb H37Rv) is reported as 2.5 µM (≈ 1.03 µg/mL).

For `Cc1cc2nccc(-c3ccccc3C(N)=O)c2c(C)c1-c1ccc(CN2CCOCC2)cc1` [Compound 15g], the MIC90 (Mtb H37Rv) was 20 µM (≈ 9.03 µg/mL).

With `CCc1ccccc1CNc1ccnc2cc(C)c(-c3ccc(CN4CCOCC4)cc3)c(C)c12` [Compound 15e] the MIC90 (Mtb H37Rv) was 2.5 µM (≈ 1.16 µg/mL).

For `Cc1cc2nc(C(C)(C)O)cc(-c3ccccc3Cl)c2c(C)c1-c1ccncc1` [Compound 20], the MIC90 (Mtb H37Rv) was > 40 µM.

Compound `Cc1cc2nccc(-c3ccccc3Cl)c2c(C)c1-c1ccc(CN2CCOCC2)cc1` [Compound 15a] has an MIC90 (Mtb H37Rv) of 0.3 µM (≈ 0.133 µg/mL).

For `Cc1cc2nc(C(=O)N3CCCC3)cc(-c3ccccc3Cl)c2c(C)c1-c1ccncc1` [Compound 23b], the MIC90 (Mtb H37Rv) was 5 µM (≈ 2.21 µg/mL).

Work on `CCOC(=O)c1cc(-c2ccccc2Cl)c2c(C)c(-c3ccncc3)c(C)cc2n1` [Compound 18] yielded an MIC90 (Mtb H37Rv) of 10 µM (≈ 4.17 µg/mL).

For `Cc1cc2nc(C(N)=O)cc(-c3ccccc3Cl)c2c(C)c1-c1ccncc1` [Compound 21a], the MIC90 (Mtb H37Rv) was 1.25 µM (≈ 0.485 µg/mL).

`Cc1cc2nccc(-c3ccccc3Cl)c2c(C)c1-c1ccncc1` [Compound 15p] showed an MIC90 (Mtb H37Rv) of 5 µM (≈ 1.72 µg/mL).

Compound `COc1ncccc1-c1ccnc2cc(C)c(-c3ccc(CN4CCOCC4)cc3)c(C)c12` [Compound 15l] has an MIC90 (Mtb H37Rv) of 2.5 µM (≈ 1.1 µg/mL).

`Cc1cc2nc(C(=O)NCCF)cc(-c3ccccc3Cl)c2c(C)c1-c1ccncc1` [Compound 21d] showed an MIC90 (Mtb H37Rv) of 1.25 µM (≈ 0.542 µg/mL).

In the case of `CNC(=O)c1cc(-c2ccccc2Cl)c2c(C)c(-c3ccncc3)c(C)cc2n1` [Compound 21b], the CFU reduction (H37Rv; lung, once-daily oral, dose-dependent, up to 50 mg/kg, 8-day acute model) is reported as ~4 log CFU, the tolerability (H37Rv; mice, up to the highest dose of 50 mg/kg) is reported as “no tolerability issue observed” and the MIC90 (Mtb H37Rv) is reported as 0.8 µM (≈ 0.322 µg/mL). For the same compound, the MICs (Mtb H37Rv) was “sub-micromolar”.

`Cc1cc2nccc(-c3ccccc3C#N)c2c(C)c1-c1ccc(CN2CCOCC2)cc1` [Compound 15d] showed an MIC90 (Mtb H37Rv) of 2.5 µM (≈ 1.08 µg/mL).

For `Cc1cc2nccc(-c3ccccc3)c2c(C)c1-c1ccc(CN2CCOCC2)cc1` [Compound 8], the MIC90 (Mtb H37Rv) was 0.45 µM (≈ 0.184 µg/mL).

In the case of `COc1ccncc1-c1ccnc2cc(C)c(-c3ccc(CN4CCOCC4)cc3)c(C)c12` [Compound 15k], the MIC90 (Mtb H37Rv) is reported as 2.5 µM (≈ 1.1 µg/mL).

With `COc1cccc(-c2ccnc3cc(C)c(-c4ccc(CN5CCOCC5)cc4)c(C)c23)c1Cl` [Compound 15h] the MIC90 (Mtb H37Rv) was 10 µM (≈ 4.73 µg/mL).

For `Cc1cc2nccc(-c3cccnc3)c2c(C)c1-c1ccc(CN2CCOCC2)cc1` [Compound 15j], the solubility kinetic [2] was > 150 µM.

In the case of `Cc1cc2nc(C(=O)NCCO)cc(-c3ccccc3Cl)c2c(C)c1-c1ccncc1` [Compound 21e], the MIC90 (Mtb H37Rv) is reported as 0.3 µM (≈ 0.13 µg/mL) and the MICs (Mtb H37Rv) is reported as “sub-micromolar”.

Compound `Cc1cc2nc(CO)cc(-c3ccccc3Cl)c2c(C)c1-c1ccncc1` [Compound 19] has an MIC90 (Mtb H37Rv) of 3.75 µM (≈ 1.41 µg/mL).

With `Cc1cc2nccc(-c3ccccc3C(=O)O)c2c(C)c1-c1ccc(CN2CCOCC2)cc1` [Compound 15f] the MIC90 (Mtb H37Rv) was 40 µM (≈ 18.1 µg/mL).

With `Cc1cc2nccc(-c3cncnc3)c2c(C)c1-c1ccc(CN2CCOCC2)cc1` [Compound 15n] the solubility kinetic [2] was > 150 µM and the MIC90 (Mtb H37Rv) was 2.5 µM (≈ 1.03 µg/mL).

With `Cc1cc2nccc(-c3cccc(Cl)c3)c2c(C)c1-c1ccc(CN2CCOCC2)cc1` [Compound 15b] the MIC90 (Mtb H37Rv) was 1.5 µM (≈ 0.664 µg/mL).
